Measured values from patent US20180154142A1, “METHODS AND DEVICES FOR TREATMENT OF TUMORS WITH NANO-PULSE STIMULATION” (Old Dominion University Research Foundation, priority 2016, published 2018).

Assays:
4T1 cells [1] = assay: cell surface calreticulin (CRT) on treated 4T1 cells, flow cytometry; format: cell-based, mouse; settings: mitoxantrone 1 μM positive control; change from 4 hours to 24 hours following treatment; FIG. 18A
Experimental: (§1) Cells then were placed in a 6 well plate for 1 hour or 20 hours. Cells with media but no NPS treatment served as negative control and a known ICD inducer, mitoxantrone (1 μM) was added to cells as a positive control. Cell surface-exposed CRT was measured by flow cytometry (FACSAria). Extracellular ATP concentrations were quantified by the luciferase/luciferin-based ATP determination Kit (A22066, Thermo-Fisher). The amount of HMGB1 in the supernatant was determined by HMGB1 ELISA Kit (MBS722248, MyBioSource).

4T1 cells [2] = assay: extracellular ATP release from treated 4T1 cells, luciferase/luciferin-based ATP determination kit; format: cell-based, mouse; settings: mitoxantrone 1 μM positive control; change from 4 hours to 24 hours following treatment; FIG. 18B
Experimental: as §1

`O=C1c2c(O)ccc(O)c2C(=O)c2c(NCCNCCO)ccc(NCCNCCO)c21` [MXT, mitoxantrone] was tested, and the “levels of calreticulin, mean fluorescence intensity (MFI)” value (4T1 cells [1]) was “largest increase” and the “levels of ATP release in the supernatants” value (4T1 cells [2]) was “increases”.
